Test results taken from article PMC11436758, “Computer-aided drug design to generate a unique antibiotic family” (Nature Communications, 2024).
In brackets after ≈: the same amount, converted by molar mass.

Assays:
Type in all cases: cell-based
A. baumannii ATCC 19606 = assay: MIC alone and MIC of colistin in combination with DNM compounds; settings: compound alone
Procedure: (§1) The medium employed for the assay was Mueller Hinton II Broth (MHB II; Becton-Dickinson, Sparks, MD, USA). Agar plates used for the organisms were trypticase soy agar plus 5% sheep blood (BD; Sparks, MD, USA). MIC assay plates were prepared using the CLSI broth microdilution procedure. Automated liquid handlers (Multidrop 384, Biomek 2000 and Biomek FX) were used to conduct serial dilutions and liquid transfers. A standardized inoculum of each organism was prepared per CLSI methods. Suspensions were prepared to equal a 0.5 McFarland standard, followed by a 1:20 dilution in test media. The inocula were dispensed into sterile reservoirs divided by length (Beckman Colter) and the Biomek 2000 was used to inoculate the plates. Daughter plates were placed on the Biomek 2000 work surface in reverse orientation so that inoculation took place from low to high drug concentration. The Biomek 2000 delivered 10 μL of the diluted suspension into each well. These inoculations yielded a final cell concentration in the daughter plates of ~5 × 10^5 colony-forming units/mL in each well. The wells of the daughter plates ultimately contained 185 μL of broth, 5 μL of drug solution, and 10 μL of bacterial inoculum. Plates were covered with a sterile lid on the top plate, placed in plastic bags, and incubated at 35 °C for ~18 h. The microplates were viewed from the bottom using a plate viewer and the MIC was read. The MIC was recorded as the lowest concentration of drug that inhibited visible growth of the organism. Uninoculated solubility control plates were also observed for evidence of drug precipitation.
(§2) Compound K. pneumoniae A. baumannii E. coli P. aeruginosa […]
(§3) Supplementary Table 3. Minimum inhibitory concentration (MIC; µg/ml) of DNM
(§4) compounds that show potential synergy in combination with colistin. […]

K. pneumoniae MMX8390 = assay: as above; settings: compound alone
Procedure: as §1, §2, §3, §4

E. coli ATCC 25922 = assay: as above; settings: compound alone, bracket after colistin value is a range (0.25-2)
Procedure: as §1, §2, §3, §4

P. aeruginosa ATCC 27853 = assay: as above; settings: compound alone, bracket after colistin value is a range (0.25-4)
Procedure: as §1, §2, §3, §4

K. pneumoniae = assay: FIC checkerboard testing with colistin (FICI); settings: in combination with colistin
Procedure: For FIC testing, test ranges were set based on broth microdilution MIC test data. The wells of a standard 96-well microdilution plate (Costar) were filled with 150 μL of water in columns 2 through 12. A 300 μL aliquot of colistin at 40X the highest final concentration to be tested was added to each well in Column 1 of the plate. The Biomek 2000 was used to make eleven 2-fold serial dilutions in the “combination agent parental” plate from columns 2 through 11. The wells of the “test-agent parental” plate were filled with 150 μL of DMSO in rows B through H. Row A of this plate was filled with 300 μL of the DNM compound stock solution at 40X the highest final concentration to be tested. Serial 2-fold dilutions were then prepared from row B-G by hand using a multichannel pipette. The “daughter plates” were loaded with 180 μL of CAMHB using the Multidrop 384. The Biomek FX was used to transfer 5 μL of colistin from each well of the comparator parental plate to the corresponding well in all the daughter plates in a single step. Then a 5 μL aliquot from each well of the test agent parental plate was transferred by hand into the corresponding well of the daughter plate. Row H and Column 12 each contained serial dilutions of test agent and the combination agent alone, respectively, for determination of the MIC. This procedure was repeated for all test agents evaluated in combination with comparators. A standardized inoculum of each organism was prepared per CLSI methods. Colonies were picked from the primary plate and a suspension was prepared to equal a 0.5 McFarland turbidity standard. The suspensions were additionally diluted 1:20 in broth. A 10 μL standardized inoculum was delivered into each well using the Biomek 2000 from low to high concentration. These inoculations yielded a final cell concentration in the daughter plates of […]. Thus, the wells of the daughter plates ultimately contained […], 5 μL of test agent, 5 μL of the colistin, and 10 μL of inoculum. […] Plates were covered with a lid on the top plate, placed in plastic bags, and incubated at 35 °C for ~18 h. Plates were viewed from the bottom using a plate viewer. Prepared reading sheets were marked for the MIC of the combination agent, the MIC of test agent, and the wells of the growth-no growth interface for wells containing test agent and combination agent at varying ratios. […] For each relevant row of the panel, the FIC index (FICI) and mean FICI was calculated by: FICdrug A/MICdrug A + FICdrug B/MICdrug B = FIC index (FICI). The mean FICI for the combination was interpreted as follows: <0.5 = synergy, >0.5–4 = additive/indifferent, and >4 = antagonism. Microbiological measurements were performed and evaluated with Micromyx LLC (Kalamazoo, MI, USA).

COS7 cells = assay: in vitro; settings: COS7 cells
Procedure: (§5) Stock solutions of the test agents were prepared in DMSO (40 mg/mL) and stored at −20 °C until use. AlamarBlue HS™ cell viability reagent was acquired from Invitrogen (Cat # A50100, Carlsbad, CA). COS7 and HEK293 cells (obtained from ATCC) were cultured and tested at 37 °C in a 5% CO2/100% humidity environment in DMEM media supplemented with 10% fetal bovine serum. Cells were trypsinized, centrifuged, resuspended in cell media, counted on a hemacytometer, and diluted to an appropriate cell density to give the desired number of cells per 300 μl media. Cells were then loaded into 48-well cell culture plates (3548; Corning, Inc.); 300 μl/well at 60,000 cells per well. The cell density was determined in preliminary tests to give linear AlamarBlue HS™ readings over a 3.5 h period for HEK293 cells and 2 h period for COS7 cells after 2 days of growth; 2 wells per plate were loaded with 300 μl/well of cell-free media to provide background readings. Plates were cultured overnight, after which test agent solutions were prepared in media at the highest test concentration (100 ug/mL) and at five serial dilutions, each containing 0.25% DMSO and 0.125% Kolliphor® EL (Cat# 27963, Sigma Aldrich). The compounds concentrations were then loaded in separate columns via 300 μl/well. […] Normalized values representing the amount of AlamarBlue converted to its […] form were calculated for each well using background-corrected absorbances as described by the Alamar-Blue HS protocol information packet available from Invitrogen Technical Support. The fraction of control viability for each agent concentration with each cell line was then determined by the ratio of normalized values for the treated wells to the control wells. […] Values were determined by linear interpolation of fraction of control growth against concentration for the test agent concentrations.

HEK293 cells = assay: in vitro
Procedure: as §5

Structure (SMILES): Cc1cc(Cl)ccc1-c1cc(C(N)=O)sc1-c1ccc(Cl)cc1C [DNM0652]
- MIC (A. baumannii ATCC 19606): > 64 µg/mL
- MIC (K. pneumoniae MMX8390): > 64 µg/mL
- MIC (E. coli ATCC 25922): > 64 µg/mL
- MIC (P. aeruginosa ATCC 27853): > 64 µg/mL
- Mean FICI (K. pneumoniae; K. pneumoniae (ATCC 13883)): 0.19
- Mean FICI (K. pneumoniae; K. pneumoniae (FDA-CDC AR-BANK0040)): 0.41
- Mean FICI (K. pneumoniae; K. pneumoniae (FDA-CDC AR-BANK0046)): 0.4
- Mean FICI (K. pneumoniae; K. pneumoniae (FDA-CDC AR-BANK0047)): 0.3
- Mean FICI (K. pneumoniae; K. pneumoniae (FDA-CDC AR-BANK0087)): 0.38
- Mean FICI (K. pneumoniae; K. pneumoniae (FDA-CDC AR-BANK0097)): 0.34
- Mean FICI (K. pneumoniae; K. pneumoniae (FDA-CDC AR-BANK0106)): 0.32
- Mean FICI (K. pneumoniae; K. pneumoniae (FDA-CDC AR-BANK0109)): 0.35
- Mean FICI (K. pneumoniae; K. pneumoniae (FDA-CDC AR-BANK0125)): 0.32
- Mean FICI (K. pneumoniae; K. pneumoniae (FDA-CDC AR-BANK0364)): 0.29
- Mean FICI (K. pneumoniae; K. pneumoniae (FDA-CDC AR-BANK0454)): 0.28
- interpretation of mean FICI (K. pneumoniae; each strain of the Klebsiella panel): Synergy
- LC50 (COS7 cells; 24 h): 37 µg/mL (≈ 98.3 µM)
- IC50 (cell viability) (COS7 cells; 24 hrs): 37.434 µg/mL (≈ 99.5 µM)
- LC50 (HEK293 cells; HEK293 cells, 24 h): 35 µg/mL (≈ 93 µM)
- IC50 (cell viability) (HEK293 cells; Hek293 cells, 24 hrs): 35.256 µg/mL (≈ 93.7 µM)
- Log IC50 (cell viability) (HEK293 cells; Hek293 cells, 24 hrs): 4.547
